From patent US20210017295A1, “BISPECIFIC BINDING AGENTS AND USES THEREOF” (MEMORIAL SLOAN KETTERING CANCER CENTER, priority 2018, published 2021)
Like-named read-outs stand apart in the source and are kept apart here.

Tested on: s.c. HER2(+) BT-474 tumors
Type: in vivo, mouse
[1] = PRIT, CA 28% w/w 70 μg, 24 h p.i., mean ± SD
[2] = no PRIT, only ~16.8 MBq (90 pmol), 24 h p.i., mean ± SEM
[3] = optimized PRIT, 1.0 h p.i., mean ± SEM
[4] = optimized PRIT, 24 h p.i., mean ± SEM
[5] = optimized PRIT, 96 h p.i., mean ± SEM
[6] = optimized PRIT, 336 h p.i., mean ± SEM
[7] = optimized PRIT, […] p.i., mean ± SEM

Nc1ccc(CC2CN(CC(=O)[O-])CCN(CC(=O)[O-])CCN(CC(=O)[O-])CCN2CC(=O)[O-])cc1.[177Lu+3] (centres unmarked) [^177Lu-DOTA-Bn]
^177Lu activity in Kidneys [1]: 0.75 ± 0.08 % IA/g | ^177Lu activity in Large Int. [1]: 0.19 ± 0.04 % IA/g | ^177Lu activity in Liver [1]: 0.33 ± 0.02 % IA/g | ^177Lu activity in Lungs [1]: 0.25 ± 0.05 % IA/g | ^177Lu activity in Muscle [1]: 0.08 ± 0.02 % IA/g | ^177Lu activity in Small Int. [1]: 0.07 ± 0.01 % IA/g | ^177Lu activity in Spleen [1]: 0.73 ± 0.18 % IA/g | ^177Lu activity in Stomach [1]: 0.05 ± 0.02 % IA/g | ^177Lu activity in Tumor [1]: 6.98 ± 3.15 % IA/g | ^177Lu activity in Blood [2]: 0.002±0.00 % IA/g | ^177Lu activity in Kidneys [2]: 0.38±0.01 % IA/g | ^177Lu activity in Liver [2]: 0.04 ± 0.01 % IA/g | ^177Lu activity in Spleen [2]: 0.02 ± 0.00 % IA/g | ^177Lu activity in Tumor [2]: 0.07±0.01 % IA/g | ^177Lu activity in tumor, range (optimized PRIT, 1-24 h p.i.): 5-8 % IA/g | Tumor-to-tissue ratio, Blood [3]: 10.7 ± 1.3 | Tumor-to-tissue ratio, Bone [3]: 37.3 ± 6.0 | Tumor-to-tissue ratio, Heart [3]: 38.7 ± 6.7 | Tumor-to-tissue ratio, Kidneys [3]: 5.7 ± 0.5 | Tumor-to-tissue ratio, Large Int. [3]: 3.0 ± 0.5 | Tumor-to-tissue ratio, Liver [3]: 8.7 ± 0.9 | Tumor-to-tissue ratio, Lungs [3]: 16.6 ± 2.3 | Tumor-to-tissue ratio, Muscle [3]: 35.7 ± 3.6 | Tumor-to-tissue ratio, Small Int. [3]: 6.0 ± 1.5 | Tumor-to-tissue ratio, Spleen [3]: 44.9 ± 6.3 | Tumor-to-tissue ratio, Stomach [3]: 17.8 ± 4.6 | ^177Lu activity in Blood [3]: 0.62 ± 0.06 % IA/g | ^177Lu activity in Bone [3]: 0.18 ± 0.03 % IA/g | ^177Lu activity in Heart [3]: 0.17 ± 0.03 % IA/g | ^177Lu activity in Kidneys [3]: 1.17 ± 0.02 % IA/g | ^177Lu activity in Large Int. [3]: 2.22 ± 0.37 % IA/g | ^177Lu activity in Liver [3]: 0.76 ± 0.06 % IA/g | ^177Lu activity in Lungs [3]: 0.40 ± 0.05 % IA/g | ^177Lu activity in Muscle [3]: 0.19 ± 0.01 % IA/g | ^177Lu activity in Small Int. [3]: 1.11 ± 0.27 % IA/g | ^177Lu activity in Spleen [3]: 0.15 ± 0.02 % IA/g | ^177Lu activity in Stomach [3]: 0.37 ± 0.09 % IA/g | ^177Lu activity in Tumor [3]: 6.65 ± 0.46 % IA/g | Tumor-to-tissue ratio, Blood [4]: 26.7±9.0 | Tumor-to-tissue ratio, Bone [4]: 189.6 ± 46.7 | Tumor-to-tissue ratio, Heart [4]: 105.3 ± 27.7 | Tumor-to-tissue ratio, Kidneys [4]: 10.4±1.3 | Tumor-to-tissue ratio, Large Int. [4]: 41.7 ± 5.4 | Tumor-to-tissue ratio, Liver [4]: 28.3 ± 8.3 | Tumor-to-tissue ratio, Lungs [4]: 38.7 ± 10.0 | Tumor-to-tissue ratio, Muscle [4]: 118.5 ± 26.8 | Tumor-to-tissue ratio, Small Int. [4]: 140.4 ± 22.8 | Tumor-to-tissue ratio, Spleen [4]: 12.6 ± 4.5 | Tumor-to-tissue ratio, Stomach [4]: 122.3 ± 17.1 | Tumor-to-tissue ratio, Blood [5]: 63.6 ± 12.2 | Tumor-to-tissue ratio, Bone [5]: 6.0 ± 1.7 | Tumor-to-tissue ratio, Heart [5]: 42.4 ± 10.3 | Tumor-to-tissue ratio, Kidneys [5]: 8.4 ± 1.7 | Tumor-to-tissue ratio, Large Int. [5]: 31.8 ± 8.6 | Tumor-to-tissue ratio, Liver [5]: 10.1 ± 2.6 | Tumor-to-tissue ratio, Lungs [5]: 34.7 ± 8.8 | Tumor-to-tissue ratio, Muscle [5]: 22.5 ± 8.7 | Tumor-to-tissue ratio, Small Int. [5]: 44.0 ± 12.6 | Tumor-to-tissue ratio, Spleen [5]: 12.9 ± 2.9 | Tumor-to-tissue ratio, Stomach [5]: 57.3 ± 13.7 | ^177Lu activity in Blood [5]: 0.04 ± 0.00 % IA/g | ^177Lu activity in Bone [5]: 0.38 ± 0.09 % IA/g | ^177Lu activity in Heart [5]: 0.05 ± 0.01 % IA/g | ^177Lu activity in Kidneys [5]: 0.27 ± 0.03 % IA/g | ^177Lu activity in Large Int. [5]: 0.07 ± 0.01 % IA/g | ^177Lu activity in Liver [5]: 0.23 ± 0.04 % IA/g | ^177Lu activity in Lungs [5]: 0.07 ± 0.01 % IA/g | ^177Lu activity in Muscle [5]: 0.10 ± 0.03 % IA/g | ^177Lu activity in Small Int. [5]: 0.05 ± 0.01 % IA/g | ^177Lu activity in Spleen [5]: 0.18 ± 0.02 % IA/g | ^177Lu activity in Stomach [5]: 0.04 ± 0.01 % IA/g | ^177Lu activity in Tumor [5]: 2.29±0.41 % IA/g | Tumor-to-tissue ratio, Blood [6]: 160.8 ± 30.3 | Tumor-to-tissue ratio, Bone [6]: 10.0 ± 3.6 | Tumor-to-tissue ratio, Heart [6]: 37.8 ± 7.7 | Tumor-to-tissue ratio, Kidneys [6]: 3.8 ± 0.9 | Tumor-to-tissue ratio, Large Int. [6]: 75.6 ± 26.4 | Tumor-to-tissue ratio, Liver [6]: 3.7 ± 1.0 | Tumor-to-tissue ratio, Lungs [6]: 29.2 ± 8.2 | Tumor-to-tissue ratio, Muscle [6]: 64.3 ± 18.4 | Tumor-to-tissue ratio, Small Int. [6]: 116.9 ± 30.0 | Tumor-to-tissue ratio, Spleen [6]: 3.5 ± 0.9 | Tumor-to-tissue ratio, Stomach [6]: 51.4 ± 12.4 | ^177Lu activity in Blood [6]: 0.002 ± 0.00 % IA/g | ^177Lu activity in Bone [6]: 0.03 ± 0.01 % IA/g | ^177Lu activity in Heart [6]: 0.01 ± 0.00 % IA/g | ^177Lu activity in Kidneys [6]: 0.08 ± 0.01 % IA/g | ^177Lu activity in Large Int. [6]: 0.004 ± 0.00 % IA/g | ^177Lu activity in Liver [6]: 0.09 ± 0.02 % IA/g | ^177Lu activity in Lungs [6]: 0.01 ± 0.00 % IA/g | ^177Lu activity in Muscle [6]: 0.01 ± 0.00 % IA/g | ^177Lu activity in Small Int. [6]: 0.003 ± 0.00 % IA/g | ^177Lu activity in Spleen [6]: 0.09 ± 0.02 % IA/g | ^177Lu activity in Stomach [6]: 0.01 ± 0.00 % IA/g | ^177Lu activity in Tumor [6]: 0.32±0.06 % IA/g | approximate tumor clearance half-life (optimized PRIT, R^2=0.894): ~38.6 h | Tumor-to-tissue ratio, Blood [7]: 12.1 ± 1.5 | Tumor-to-tissue ratio, Bone [7]: 37.5 ± 4.3 | Tumor-to-tissue ratio, Heart [7]: 37.5 ± 5.2 | Tumor-to-tissue ratio, Kidneys [7]: 5.2 ± 0.5 | Tumor-to-tissue ratio, Large Int. [7]: 1.6 ± 0.3 | Tumor-to-tissue ratio, Liver [7]: 12.6 ± 1.6 | Tumor-to-tissue ratio, Lungs [7]: 13.5 ± 1.6 | Tumor-to-tissue ratio, Muscle [7]: 25.8 ± 5.1 | Tumor-to-tissue ratio, Small Int. [7]: 10.6 ± 3.7 | Tumor-to-tissue ratio, Spleen [7]: 14.9 ± 1.8 | Tumor-to-tissue ratio, Stomach [7]: 23.6 ± 7.7 | ^177Lu activity in Blood [7]: 0.41 ± 0.04 % IA/g | ^177Lu activity in Bone [7]: 0.13 ± 0.01 % IA/g | ^177Lu activity in Heart [7]: 0.13 ± 0.02 % IA/g | ^177Lu activity in Kidneys [7]: 0.95 ± 0.05 % IA/g | ^177Lu activity in Large Int. [7]: 3.18 ± 0.52 % IA/g | ^177Lu activity in Liver [7]: 0.39 ± 0.04 % IA/g | ^177Lu activity in Lungs [7]: 0.37 ± 0.03 % IA/g | ^177Lu activity in Muscle [7]: 0.19 ± 0.04 % IA/g | ^177Lu activity in Small Int. [7]: 0.47 ± 0.16 % IA/g | ^177Lu activity in Spleen [7]: 0.33 ± 0.03 % IA/g | ^177Lu activity in Stomach [7]: 0.21 ± 0.07 % IA/g | ^177Lu activity in Tumor [7]: 4.95 ± 0.34 % IA/g
